Assay results taken from patent publication US9982006B2, “2′-chloro aminopyrimidinone and pyrimidine dione nucleosides” (Gilead Sciences, Inc., priority 2014, dated 2018).

Test system: RSV strain A2
Experiment: RSV cell culture EC50 determination (infectious cytopathic cell protection assay in HEp-2 cells)
Type: cell-based
Conditions: human respiratory syncytial virus, 96 h; inhibition of RSV-induced cytopathic effect in HEp-2 cells, 4 days, Cell TiterGlo readout
Procedure: RSV Cell Culture EC50 Determination
Antiviral activity against RSV is determined using an infectious cytopathic cell protection assay in HEp-2 cells. In this assay, compounds inhibiting viral infection and/or replication produce a cytoprotective effect against the virus-induced cell killing that can be quantified using a cell viability reagent. The techniques used here are novel adaptations of methods described in published literature (Chapman et al., Antimicrob Agents Chemother. 2007, 51(9):3346-53.)
HEp-2 cells are obtained from ATCC (Manassas, VI) and maintained in MEM media supplemented with 10% fetal bovine serum and penicillin/streptomycin. […]
For antiviral tests, HEp-2 cells are grown in large cell culture flasks to near confluency but not fully so. […] Each compound dilution is transferred in single or quadruplicate samples into dry assay plates, which are stored until assay is ready to go. […]
Subsequently, an infectious mixture is prepared using an appropriate dilution of virus stock previously determined by titration with cells at a density of 50,000/ml and 20 uL/well is added to test plates w/compounds via automation (uFlow, Biotek). […] After the incubation, a cell viability reagent, Cell TiterGlo (Promega, Madison, Wis.) is added to the assay plates, which are incubated briefly, and a luminescent readout is measured (Envision, Perkin Elmer) in all the assay plates. […]

`Nc1ccn([C@@H]2O[C@@](CO)(CCl)[C@@H](O)[C@H]2Cl)c(=O)n1` [Example 1, 4-amino-1-((2R,3R,4R,5R)-3-chloro-5-(chloromethyl)-4-hydroxy-5-(hydroxymethyl)tetrahydrofuran-2-yl)pyrimidin-2(1H)-one] gave an EC50 greater than 50 µM.
